ChEMBL document CHEMBL4130445, “TNF-α and IL-6 inhibitors: Conjugates of N-substituted indole and aminophenylmorpholin-3-one as anti-inflammatory agents” (Eur J Med Chem, 2017)
The source made the active and inactive calls. No cut-off for these calls is given here.

Key:
BV-2 [1] = test: Inhibition of LPS-induced IL6 production in mouse BV2 cells assessed as IL6 level at 20 uM pre-incubated before LPS stimulation by ELISA (reference value: 146.75%); type: functional; set-up: scale not given: the % may be the effect or the level left
[2] = Cytotoxicity in mouse BV2 cells assessed as cell viability at 80 uM incubated for 48 hrs by MTT assay (reference value: 100%); type: cell-based, BV-2; settings: read-out: Activity
[3] = Cytotoxicity in mouse BV2 cells assessed as cell viability at 15 uM incubated for 48 hrs by MTT assay (reference value: 100%); type: cell-based, BV-2; settings: read-out: Activity
BV-2 [4] = test: Inhibition of LPS-induced TNFalpha production in mouse BV2 cells assessed as TNFalpha level at 10 uM pre-incubated before LPS stimulation by ELISA (reference value: 142.71%); type: functional; set-up: scale not given: the % may be the effect or the level left
[5] = Cytotoxicity in mouse BV2 cells assessed as cell viability at 5 uM incubated for 48 hrs by MTT assay (reference value: 100%); type: cell-based, BV-2; settings: read-out: Activity
BV-2 [6] = test: Suppression of LPS-induced morphological changes in mouse BV2 cells at 10 uM pre-incubated before LPS stimulation by phase contrast microscopy; type: functional, cell-based
BV-2 [7] = test: Inhibition of LPS-induced nitric oxide production in mouse BV2 cells assessed as nitric oxide level at 20 uM pre-incubated before LPS stimulation by Griess reagent based assay (reference value: 121.09%); type: functional; set-up: scale not given: the % may be the effect or the level left
BV-2 [8] = test: Inhibition of LPS-induced TNFalpha production in mouse BV2 cells assessed as TNFalpha level at 20 uM pre-incubated before LPS stimulation by ELISA (reference value: 142.71%); type: functional; set-up: scale not given: the % may be the effect or the level left
BV-2 [9] = test: Suppression of LPS-induced morphological changes in mouse BV2 cells at 5 uM pre-incubated before LPS stimulation by phase contrast microscopy; type: functional, cell-based
[10] = Cytotoxicity in mouse BV2 cells assessed as cell viability at 1 uM incubated for 48 hrs by MTT assay (reference value: 100%); type: cell-based, BV-2; settings: read-out: Activity
BV-2 [11] = test: Inhibition of LPS-induced nitric oxide production in mouse BV2 cells assessed as nitric oxide level at 10 uM pre-incubated before LPS stimulation by Griess reagent based assay (reference value: 121.09%); type: functional; set-up: scale not given: the % may be the effect or the level left
BV-2 [12] = test: Inhibition of LPS-induced IL6 production in mouse BV2 cells assessed as IL6 level at 10 uM pre-incubated before LPS stimulation by ELISA (reference value: 146.75%); type: functional; set-up: scale not given: the % may be the effect or the level left
[13] = Cytotoxicity in mouse BV2 cells assessed as cell viability at 20 uM incubated for 48 hrs by MTT assay (reference value: 100%); type: cell-based, BV-2; settings: read-out: Activity
[14] = Cytotoxicity in mouse BV2 cells assessed as cell viability at 40 uM incubated for 48 hrs by MTT assay (reference value: 100%); type: cell-based, BV-2; settings: read-out: Activity
[15] = Cytotoxicity in mouse BV2 cells assessed as cell viability at 100 uM incubated for 48 hrs by MTT assay (reference value: 100%); type: cell-based, BV-2; settings: read-out: Activity
[16] = biological target: T1, Prostaglandin G/H synthase 2 (Homo sapiens) (UniProt P35354); test: Inhibition of COX2 (unknown origin) by immunoassay
T1 sequence (whole entry): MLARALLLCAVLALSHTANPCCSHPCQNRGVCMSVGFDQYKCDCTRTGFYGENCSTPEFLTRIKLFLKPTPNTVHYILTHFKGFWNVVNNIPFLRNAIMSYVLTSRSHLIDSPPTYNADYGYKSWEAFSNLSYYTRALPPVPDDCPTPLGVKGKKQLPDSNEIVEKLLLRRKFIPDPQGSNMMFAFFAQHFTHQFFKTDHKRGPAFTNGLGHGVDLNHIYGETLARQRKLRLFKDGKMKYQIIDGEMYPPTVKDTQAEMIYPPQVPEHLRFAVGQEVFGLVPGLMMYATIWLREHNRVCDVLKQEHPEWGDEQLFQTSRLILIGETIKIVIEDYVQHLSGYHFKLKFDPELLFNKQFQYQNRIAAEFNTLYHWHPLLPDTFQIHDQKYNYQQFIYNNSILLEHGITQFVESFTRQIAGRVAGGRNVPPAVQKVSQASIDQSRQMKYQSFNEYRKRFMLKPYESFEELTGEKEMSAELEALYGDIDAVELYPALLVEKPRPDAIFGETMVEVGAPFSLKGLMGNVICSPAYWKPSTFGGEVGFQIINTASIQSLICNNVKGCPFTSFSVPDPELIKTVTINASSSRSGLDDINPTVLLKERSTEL

BV-2 [17] = test: Cytotoxicity in mouse BV2 cells assessed as reduction in cell viability incubated for 48 hrs by MTT assay; type: cell-based; settings: BV-2, 48 h
[18] = Cytotoxicity in mouse BV2 cells assessed as cell viability at 0.5 uM incubated for 48 hrs by MTT assay (reference value: 100%); type: cell-based, BV-2; settings: read-out: Activity
[19] = Cytotoxicity in mouse BV2 cells assessed as cell viability at 10 uM incubated for 48 hrs by MTT assay (reference value: 100%); type: cell-based, BV-2; settings: read-out: Activity
[20] = Cytotoxicity in mouse BV2 cells assessed as cell viability at 60 uM incubated for 48 hrs by MTT assay (reference value: 100%); type: cell-based, BV-2; settings: read-out: Activity
BV-2 [21] = test: Inhibition of LPS-induced IL6 production in mouse BV2 cells at 20 uM pre-incubated before LPS stimulation by ELISA; type: functional
BV-2 [22] = test: Inhibition of LPS-induced TNFalpha production in mouse BV2 cells at 20 uM pre-incubated before LPS stimulation by ELISA; type: functional
BV-2 [23] = test: Inhibition of LPS-induced IL6 production in mouse BV2 cells at 10 uM pre-incubated before LPS stimulation by ELISA; type: functional
Mus musculus [24] = test: Analgesic activity in Swiss albino mouse model of acetic acid induced writhing assessed as inhibition of pain response at 10 mg/kg, ip dosed 30 mins before acetic acid injection; type: functional
BV-2 [25] = test: Inhibition of LPS-induced TNFalpha production in mouse BV2 cells at 10 uM pre-incubated before LPS stimulation by ELISA; type: functional
Mus musculus [26] = species: Mus musculus; test: Inhibition of LPS-induced NFkappaB nuclear translocation in mouse BV2 cells pre-incubated before LPS stimulation by immunostaining based confocal laser microscopy; type: cell-based
[27] = biological target: Transcription factor Jun (Mus musculus) (UniProt P05627); test: Inhibition of LPS-induced AP1 nuclear translocation in mouse BV2 cells pre-incubated before LPS stimulation by immunostaining based confocal laser microscopy; type: cell-based
BV-2 [28] = test: Inhibition of LPS-induced MMP2 production production in mouse BV2 cells pre-incubated before LPS stimulation by gelatin zymography; type: functional, cell-based
BV-2 [29] = test: Inhibition of LPS-induced MMP9 production production in mouse BV2 cells assessed as MMP9 protein level pre-incubated before LPS stimulation by gelatin zymography (reference value: 105.113%); type: functional; set-up: scale not given: the % may be the effect or the level left
BV-2 [30] = test: Inhibition of LPS-induced MMP2 production production in mouse BV2 cells assessed as MMP2 protein level pre-incubated before LPS stimulation by gelatin zymography (reference value: 105.071%); type: functional; set-up: scale not given: the % may be the effect or the level left
BV-2 [31] = test: Inhibition of LPS-induced MMP9 production production in mouse BV2 cells pre-incubated before LPS stimulation by gelatin zymography; type: functional, cell-based

Chain of Transcription factor Jun (Mus musculus) (P05627 whole entry): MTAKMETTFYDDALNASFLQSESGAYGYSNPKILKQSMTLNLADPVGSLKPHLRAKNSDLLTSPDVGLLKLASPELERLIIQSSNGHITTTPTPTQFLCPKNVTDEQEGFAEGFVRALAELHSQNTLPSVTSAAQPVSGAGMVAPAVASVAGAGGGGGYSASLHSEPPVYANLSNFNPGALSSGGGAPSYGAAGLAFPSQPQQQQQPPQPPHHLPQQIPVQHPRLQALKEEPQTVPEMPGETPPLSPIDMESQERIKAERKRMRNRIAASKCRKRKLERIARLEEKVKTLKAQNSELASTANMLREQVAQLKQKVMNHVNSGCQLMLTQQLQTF

Compound	Activity (BV-2 [1])	viability at 48 h, 80 µM [2]	viability at 48 h, 15 µM [3]	Activity (BV-2 [4])	viability at 48 h, 5 µM [5]	Activity (BV-2 [6])	Activity (BV-2 [7])	Activity (BV-2 [8])	Activity (BV-2 [9])	viability at 48 h, 1 µM [10]	Activity (BV-2 [11])	Activity (BV-2 [12])	viability at 48 h, 20 µM [13]	viability at 48 h, 40 µM [14]	viability at 48 h, 100 µM [15]	inhibition [16]	IC50 (BV-2 [17])	viability at 48 h, 0.5 µM [18]	viability at 48 h, 10 µM [19]	viability at 48 h, 60 µM [20]	further results
O=C1COCCN1c1ccc(/N=C\c2cn(Cc3ccccc3)c3ccccc23)cc1	181.9833%	58.7%	95.7%	217.4584%	84%	Active	103.8462%	183.8555%	Active	89.3%	129.638%	265.8219%	87.8%	69.5%	56.2%	inactive	> 100 µM	86.6%	91.3%	65%	
O=C1COCCN1c1ccc(/N=C/c2cn(CCCn3cc(/C=N/c4ccc(N5CCOCC5=O)cc4)c4ccccc43)c3ccccc23)cc1	111.7925%	67.6%	93.1%	90.26%	94.1%	Active	102.1493%	80.53%	Active	97.1%	107.9186%	126.5089%	95.3%	79.8%	61.4%	inactive	> 100 µM	99.9%	91.3%	72.4%	inhibition at 20 µM (BV-2 [21]): 23.8%; inhibition at 20 µM (BV-2 [22]): 43.6%; inhibition at 10 µM (BV-2 [23]): 13.8%; inhibition in vivo at 10 mg/kg (Mus musculus [24]): 65.5%; inhibition at 10 µM (BV-2 [25]): 36.8%
O=C1COCCN1c1ccc(/N=C\c2c[nH]c3ccccc23)cc1	89.05%	97.8%	100%	66.71%	101%	Active	104.8643%	56.03%	Active	105%	104.5249%	91.1848%	104%	105%	101%	inactive	> 100 µM	104%	98.5%	90.8%	inhibition at 20 µM (BV-2 [21]): 39.3%; inhibition (Mus musculus [26]): Active; inhibition [27]: Active; inhibition (BV-2 [28]): Active; Activity (BV-2 [29]): 96.273%; inhibition at 20 µM (BV-2 [22]): 60.8%; inhibition at 10 µM (BV-2 [23]): 37.9%; Activity (BV-2 [30]): 94.929%; inhibition (BV-2 [31]): Active; inhibition at 10 µM (BV-2 [25]): 53.3%
O=C1COCCN1c1ccc(/N=C\c2cn(C(=O)c3ccccc3)c3ccccc23)cc1	185.4729%	58.4%	86.6%	199.2439%	87.3%	Active	98.08%	122.9276%	Active	109%	97.74%	258.2615%	85.1%	72.6%	52.9%	inactive	> 100 µM	104%	88.6%	57.5%	
Cc1ccc(S(=O)(=O)n2cc(/C=N\c3ccc(N4CCOCC4=O)cc3)c3ccccc32)cc1	94.84%	57.8%	71%	90.58%	89.1%	Active	108.2579%	70.48%	Active	92.1%	108.5973%	101.2128%	56.7%	58.1%	57.4%	inactive	> 100 µM	90.9%	86.4%	56%	inhibition at 20 µM (BV-2 [21]): 35.4%; inhibition (Mus musculus [26]): Active; inhibition [27]: Active; Activity (BV-2 [29]): 95.906%; inhibition at 20 µM (BV-2 [22]): 50.6%; inhibition at 10 µM (BV-2 [23]): 31%; Activity (BV-2 [30]): 96.245%; inhibition at 10 µM (BV-2 [25]): 36.5%
